Assay results: patent US7838672B2, “Use of fused ring-1,2,4-benzotriazine derivatives as herbicides or plant growth regulators for the control of undesired plants or vegetation, compounds and compositions thereof, and processes for their preparation” (Bayer CropScience GmbH, priority 2003, dated 2010)

Tests used:
[1] = test system: Galium aparine, Abutilon theophrasti, Alopecurus myosuroides, Avena fatua, Ipomoea purpurea, Echinchloa crus-galli, Solanum nigrum and Cyperus iria; experiment: Pre-emergence effect on weeds (greenhouse pot test, applied to the covering soil); format: in vivo; conditions: application rate of 3 kg or less of active ingredient per hectare, assessed three to four weeks after application vs untreated control
Method: Seeds of monocotyledonous and dicotyledonous weeds and/or crops were placed in sandy loam in wood-fibre-pots and covered with soil. The compounds formulated as wettable powders or emulsifiable concentrates were dissolved and diluted with water containing adjuvant and then applied to the surface of the covering soil at different dose rates at an application volume of 600 or 800 litres water per ha. After the treatment, the pots were placed in the greenhouse and kept under good growth conditions for the plants. The herbicidal effect was assessed visually as a percentage figure in comparison with the untreated control three to four weeks after application. 100% Efficacy refers to the complete damage of the assessed plants, 0% efficacy refers to the appearance of the untreated control.

[2] = test system: Galium aparine, Abutilon theophrasti, Alopecurus myosuroides, Avena fatua, Ipomoea purpurea, Echinchloa crus-galli, Solanum nigrum and Cyperus iria; experiment: Post-emergence effect on weeds (greenhouse pot test, applied over the top of plants at one-leaf-stage); format: in vivo; conditions: application rate of 3 kg or less of active ingredient per hectare, treated at one-leaf-stage, assessed three to four weeks after application vs untreated control
Method: Seeds of monocotyledonous and dicotyledonous weeds and/or crops were placed in sandy loam in wood-fibre-pots covered with soil and grown under good greenhouse conditions. The plants were treated at the one-leaf-stage two to three weeks after sowing. The compounds, formulated as wettable powders or emulsifiable concentrates were dissolved and diluted with water containing adjuvant and then applied over the top of the plants at different dose rates at an application volume of 600 or 800 litres water per ha. After the treatment, the pots were placed in the greenhouse and kept under good growth conditions for the plants. The herbicidal effect was assessed visually as a percentage figure in comparison with the untreated control three to four weeks after application

Row | SMILES | pre-emergence control of harmful weed species (herbicidal effect assessed visually) [1] | post-emergence control of the tested weed species (herbicidal effect assessed visually) [2] | melting point
1 | c1ccc2c(c1)nnc1nncn12 [Compound 3, [1,2,4]triazolo[3,4-c][1,2,4]benzotriazine] | very good pre-emergence control | very good post-emergence control | 259 to 261 °C
2 | [O-][n+]1nc2nncn2c2ccc(Br)cc21 [Compound 5, 7-bromo[1,2,4]triazolo[3,4-c][1,2,4]benzotriazine-5-oxide] | very good pre-emergence control | very good post-emergence control | 
3 | c1ccc2c(c1)NNc1nncn1-2 [Compound 6, 4,5-dihydro[[1,2,4]triazolo[3,4-c][1,2,4]benzotriazine] | very good pre-emergence control | very good post-emergence control | 
